Measurements from US20200017496A1 (priority 2017, published 2020).

What was measured:
Assay type in all cases: cell-based
[1] = test system: Proteus mirabilis (PMI) isolates; experiment: microbe, parasite or virus in culture; conditions: AF1 @ 4 μg/mL
Experimental: (§1) Method 2: MIC of Compounds Alone and Combined with Antibacterials Against Bacterial Isolates.
(§2) Compounds of the present invention were assessed against genotyped bacterial strains (Table 3, 4) alone or in combination with an antibacterial (Table 2). […] Log phase bacterial suspensions were adjusted to a final density of 5·10^5 CFU/mL in cation-adjusted Mueller-Hinton broth (ca-MHB; Becton-Dickinson and Company) and added to each well (98 μL). Microplates were incubated for 16-20 h at 35° C. in ambient air. The MIC of the compounds was defined as the lowest concentration of said compounds that prevented bacterial growth as read by visual inspection. The MIC of ATB at each compound concentration was defined as the lowest concentration of ATB that prevented bacterial growth as read by visual inspection.

[2] = test system: Morganella morganii (MMO) isolates; experiment: MIC of compounds alone and combined with antibacterials, broth microdilution (CLSI); conditions: AF1 @ 4 μg/mL
Experimental: as §1, §2

[3] = test system: Providencia stuartii (PST) isolates; experiment: as above; conditions: AF1 @ 4 μg/mL
Experimental: as §1, §2

[4] = test system: Citrobacter freundii (CFR) isolates; experiment: as above
Experimental: as §1, §2

[5] = test system: Enterobacter aerogenes (EAE) isolates; experiment: as above; conditions: AF1 @ 4 μg/mL
Experimental: as §1, §2

[6] = test system: Klebsiella pneumoniae (KPN) isolates; experiment: as above; conditions: AF1 @ 4 μg/mL
Experimental: as §1, §2

Q: For `COCC1=C(C(=O)O)N2C(=O)[C@@H](NC(=O)/C(=N\OC)c3csc(N)n3)[C@H]2SC1` [POD, Cefpodoxime], which “MIC ATB in combination” value ([1]; PMI UFR82) is on record?
A: 1 µg/mL

Q: And the “MIC ATB in combination” value ([1]; PMI UFR120)?
A: <=0.25 μg/mL

Q: And the “MIC ATB in combination” value ([1]; PMI UFR121)?
A: <=0.25 μg/mL

Q: What about the “MIC ATB in combination” value ([1]; PMI UFR122) of the same compound?
A: <=0.25 μg/mL

Q: What about the “MIC ATB in combination” value ([1]; PMI UFR123) of the same compound?
A: <=0.25 μg/mL

Q: What about the “MIC ATB in combination” value ([1]; PMI UFR124) of the same compound?
A: <=0.25 μg/mL

Q: What about the “MIC ATB in combination” value ([1]; PMI UFR125) of the same compound?
A: <=0.25 μg/mL

Q: And the “MIC ATB in combination” value ([1]; PMI UFR126)?
A: <=0.25 μg/mL

Q: And the “MIC ATB in combination” value ([1]; PMI UFR127)?
A: <=0.25 μg/mL

Q: What about the “MIC ATB in combination” value ([1]; PMI UFR129) of the same compound?
A: <=0.25 μg/mL

Q: What about the “MIC ATB in combination” value ([1]; PMI UFR130) of the same compound?
A: 0.5 µg/mL

Q: And the “MIC ATB in combination” value ([1]; PMI UFR237)?
A: <=0.25 μg/mL

Q: And the “MIC ATB in combination” value ([2]; MMO 200321)?
A: 2 µg/mL

Q: And the “MIC ATB in combination” value ([2]; MMO UFR144)?
A: 2 µg/mL

Q: And the “MIC ATB in combination” value ([2]; MMO UFR240)?
A: <=0.25 μg/mL

Q: What about the “MIC ATB in combination” value ([2]; MMO UFR241) of the same compound?
A: 2 µg/mL

Q: And the “MIC ATB in combination” value ([2]; MMO UFR242)?
A: 4 µg/mL

Q: And the “MIC ATB in combination” value ([2]; MMO UFR243)?
A: 4 µg/mL

Q: What about the “MIC ATB in combination” value ([2]; MMO UFR244) of the same compound?
A: <=0.25 μg/mL

Q: And the “MIC ATB in combination” value ([2]; MMO UFR245)?
A: 2 µg/mL

Q: What about the “MIC ATB in combination” value ([2]; MMO UFR246) of the same compound?
A: 4 µg/mL

Q: And the “MIC ATB in combination” value ([2]; MMO UFR247)?
A: 1 µg/mL

Q: And the “MIC ATB in combination” value ([3]; PST UFR94)?
A: 0.5 µg/mL

Q: And the “MIC ATB in combination” value ([3]; PST UFR95)?
A: 2 µg/mL

Q: What about the “MIC ATB in combination” value ([3]; PST UFR235) of the same compound?
A: 2 µg/mL

Q: And the “MIC ATB in combination” value ([4]; CFR UFR10, AF1 @ 4 μg/mL)?
A: <=0.25 μg/mL

Q: And the “MIC ATB in combination” value ([4]; CFR UFR11, AF1 @ 4 μg/mL)?
A: 16 µg/mL

Q: What about the “MIC ATB in combination” value ([4]; CFR UFR83, AF1 @ 4 μg/mL) of the same compound?
A: >128 µg/mL

Q: And the “MIC ATB in combination” value ([4]; CFR UFR146, AF1 @ 4 μg/mL)?
A: 1 µg/mL

Q: And the “MIC ATB in combination” value ([4]; CFR UFR248, AF1 @ 4 μg/mL)?
A: 1 µg/mL

Q: What about the “MIC ATB in combination” value ([4]; CFR UFR249, AF1 @ 4 μg/mL) of the same compound?
A: <=0.25 μg/mL

Q: And the “MIC ATB in combination” value ([4]; CFR UFR250, AF1 @ 4 μg/mL)?
A: 0.5 µg/mL

Q: And the “MIC ATB in combination” value ([4]; strain CFR UFR253, antibacterial combined with AF1 @ 4 μg/mL)?
A: <=0.25 μg/mL

Q: What about the “MIC ATB in combination” value ([4]; strain CFR UFR254, antibacterial combined with AF1 @ 4 μg/mL) of the same compound?
A: <=0.25 μg/mL

Q: What about the “MIC ATB in combination” value ([5]; EAE 49469) of the same compound?
A: 8 µg/mL

Q: What about the “MIC ATB in combination” value ([5]; EAE 200261) of the same compound?
A: 4 µg/mL

Q: What about the “MIC ATB in combination” value ([5]; EAE UFR199) of the same compound?
A: 1 µg/mL

Q: What about the “MIC ATB in combination” value ([5]; EAE UFR201) of the same compound?
A: <=0.25 μg/mL

Q: And the “MIC ATB in combination” value ([5]; EAE UFR202)?
A: 2 µg/mL

Q: And the “MIC ATB in combination” value ([5]; EAE UFR213)?
A: 1 µg/mL

Q: And the “MIC ATB in combination” value ([6]; KPN 6299)?
A: <=0.25 μg/mL

Q: What about the “MIC ATB in combination” value ([6]; KPN 110376) of the same compound?
A: <=0.25 μg/mL

Q: What about the “MIC ATB in combination” value ([6]; KPN 131119) of the same compound?
A: <=0.25 μg/mL

Q: And the “MIC ATB in combination” value ([6]; KPN 140513)?
A: 4 µg/mL

Q: And the “MIC ATB in combination” value ([6]; KPN 160143)?
A: <=0.25 μg/mL

Q: What about the “MIC ATB in combination” value ([6]; KPN 190128) of the same compound?
A: 0.5 µg/mL

Q: What about the “MIC ATB in combination” value ([6]; KPN 190270) of the same compound?
A: 0.5 µg/mL

Q: And the “MIC ATB in combination” value ([6]; KPN 190425)?
A: <=0.25 μg/mL

Q: And the “MIC ATB in combination” value ([6]; KPN 190551)?
A: <=0.25 μg/mL

Q: What about the “MIC ATB in combination” value ([6]; KPN 200047) of the same compound?
A: <=0.25 μg/mL

Q: What about the “MIC ATB in combination” value ([6]; KPN 200327) of the same compound?
A: <=0.25 μg/mL

Q: What about the “MIC ATB in combination” value ([6]; KPN 260251) of the same compound?
A: <=0.25 μg/mL

Q: And the “MIC ATB in combination” value ([6]; KPN 260252)?
A: 4 µg/mL

Q: What about the “MIC ATB in combination” value ([6]; KPN 260376) of the same compound?
A: <=0.25 μg/mL

Q: What about the “MIC ATB in combination” value ([6]; KPN 270077) of the same compound?
A: 0.5 µg/mL

Q: And the “MIC ATB in combination” value ([6]; KPN 700603)?
A: 0.5 µg/mL

Q: And the “MIC ATB in combination” value ([6]; KPN ARA)?
A: <=0.25 μg/mL

Q: What about the “MIC ATB in combination” value ([6]; KPN BAA-1898) of the same compound?
A: 0.5 µg/mL

Q: What about the “MIC ATB in combination” value ([6]; KPN LIB) of the same compound?
A: <=0.25 μg/mL

Q: And the “MIC ATB in combination” value ([6]; KPN UFR22_O)?
A: <=0.25 μg/mL

Q: What about the “MIC ATB in combination” value ([6]; KPN UFR23) of the same compound?
A: <=0.25 μg/mL

Q: And the “MIC ATB in combination” value ([6]; KPN UFR24)?
A: 1 µg/mL

Q: And the “MIC ATB in combination” value ([6]; KPN UFR25)?
A: <=0.25 μg/mL

Q: What about the “MIC ATB in combination” value ([6]; KPN UFR27) of the same compound?
A: 4 µg/mL

Q: What about the “MIC ATB in combination” value ([6]; KPN UFR28) of the same compound?
A: <=0.25 μg/mL

Q: What about the “MIC ATB in combination” value ([6]; KPN UFR65) of the same compound?
A: 0.5 µg/mL

Q: And the “MIC ATB in combination” value ([6]; KPN UFR66)?
A: 2 µg/mL

Q: What about the “MIC ATB in combination” value ([6]; KPN UFR67) of the same compound?
A: 4 µg/mL

Q: And the “MIC ATB in combination” value ([6]; KPN UFR68)?
A: 1 µg/mL

Q: What about the “MIC ATB in combination” value ([6]; KPN UFR76) of the same compound?
A: >128 µg/mL

Q: And the “MIC ATB in combination” value ([6]; KPN UFR77)?
A: 4 µg/mL

Q: And the “MIC ATB in combination” value ([6]; KPN UFR78)?
A: 128 µg/mL

Q: And the “MIC ATB in combination” value ([6]; KPN UFR79)?
A: 4 µg/mL

Q: And the “MIC ATB in combination” value ([6]; KPN UFR80)?
A: 0.5 µg/mL

Q: What about the “MIC ATB in combination” value ([6]; KPN UFR81) of the same compound?
A: 4 µg/mL

Q: What about the “MIC ATB in combination” value ([6]; KPN UFR215) of the same compound?
A: 0.5 µg/mL

Q: And the “MIC ATB in combination” value ([6]; KPN UFR216)?
A: <=0.25 μg/mL

Q: What about the “MIC ATB in combination” value ([6]; KPN UFR217) of the same compound?
A: <=0.25 μg/mL

Q: What about the “MIC ATB in combination” value ([6]; KPN UFR219) of the same compound?
A: <=0.25 μg/mL

Q: What about the “MIC ATB in combination” value ([6]; KPN UFR220) of the same compound?
A: 4 µg/mL

Q: What about the “MIC ATB in combination” value ([6]; KPN UFR221) of the same compound?
A: 1 µg/mL

Q: And the “MIC ATB in combination” value ([6]; KPN UFR222)?
A: 8 µg/mL

Q: And the “MIC ATB in combination” value ([6]; KPN UFR227O)?
A: 4 µg/mL
